Reference: patent US20230114143A1, “METHOD OF TREATING THE SCALP” (Conopco, Inc., d/b/a UNILEVER, priority 2020, published 2023)
Where a name gives a salt, the structure may show the parent alone.

Key:
[1] = tested on: differentiated keratinocytes; experiment: Microarray gene expression in differentiated primary human epidermal keratinocytes dosed with piroctone olamine; assay type: cell-based; conditions: 7.5 µM, 24 hours
Experimental: Primary human epidermal keratinocytes were obtained from Lonza. Cells were cultured in monolayer in KGM-Gold medium. For the experiment keratinocytes were differentiated by incubating for five days in KGM-Gold medium supplemented with 1.2 mM calcium chloride. Piroctone olamine was supplied by Sigma. Differentiated keratinocyte cultures were dosed with 7.5 µM piroctone olamine and 0.1% ethanol (Group 1, n=4), or with 0.1% ethanol only (Group 2, n=4) and incubated for 24 hours. Cells were then lysed in RLT buffer and subjected to RNA extraction using Qiagen RNeasy Micro Kit according to manufacturer’s instructions. The levels of gene expression were determined using Agilent SurePrint G3 Human Gene Expression 8x60k v3 Microarrays in conjunction with Agilent SureHyb hybridisation and SureScan High-Resolution scanning technology, in accordance with manufacturer’s protocol. Microarray data processing and statistical analysis was carried out in Agilent GeneSpring GX14 software. To identify differentially expressed genes in piroctone olamine treated cultures (Group 1) compared to vehicle control cultures (Group 2), t-test was applied (p≤0.05) with or without Benjamini-Hochberg false discovery rate correction (FDR≤0.05).

[2] = tested on: ex vivo human skin explants; experiment: RNA sequencing gene expression in NativeSkin ex vivo human skin explants treated topically with piroctone olamine; assay type: cell-based; conditions: 24 hours
Experimental: Human ex vivo skin model production and piroctone olamine treatment were conducted by Genoskin (France). NativeSkin models of 15 mm diameter ex vivo human skin explants with silicon rings were produced from three donors and cultured in NativeSkin culture medium under 5% CO2 humidified atmosphere in 37° C. Skin explants were treated topically with 50 ul of solution containing 30 uM piroctone olamine in PBS with 1% ethanol (Group 1, n=3), or control PBS solution containing 1% ethanol (Group 2, n=3), and were incubated for 24 hours. Following one day of topical treatment, piroctone olamine and control solutions were removed using cotton swabs and each model was unmolded from silicon ring and re-punch at 12 mm diameter. Half of each skin biopsy was processed for RNA using OMNI-TH Rotor Stator tissue homogeniser and Qiagen RNeasy Fibrous Tissue RNA Mini Kit according to manufacturer’s instructions. RNA sequencing was used for gene expression analysis. Lexogen QuantSeq3′ FWD libraries were prepared from RNA samples and sequenced via single read (1x75 bp) performed using NextSeq 500/550 Mid-Output Kit on the NextSeq 500 Illumina platform. FASTQ data files were then uploaded to the BlueBee genomic platform and read-trimming, alignment, and read count were performed using QuantSeq data processing pipeline. Differential gene expression analysis for Group 1/Group 2 comparison was run in Bluebee genomic platform using QuantSeq DE pipeline (FDR corrected p≤0.05).

[3] = vs 0.1% ethanol control, Comeodesmosome formation
[4] = vs 0.1% ethanol control, Cornified envelop formation
[5] = vs 0.1% ethanol control, Tight junction formation
[6] = 30 uM topical in PBS with 1% ethanol, vs control, Tight junction formation

SMILES: Cc1cc(CC(C)CC(C)(C)C)n(O)c(=O)c1 (stereo not shown) [piroctone olamine, 1-hydroxy-4-methyl-6-(2,4,4-trimethylpentyl)-2(1H) pyridinone monoethanolamine salt]
- gene expression of epidermal barrier biomarkers compared to control (in words) ([1]; differentiated keratinocytes): clear increase in gene expression
- Fold Change (Group ⅟Group 2) gene expression, Desmocolin 2 (DSC2) [1, 3]: 2.49
- Fold Change (Group ⅟Group 2) gene expression, Desmoglein 4 (DSG4) [1, 3]: 2.44
- Fold Change (Group ⅟Group 2) gene expression, Plakophilin 1 (PKP1) [1, 3]: 1.75
- Fold Change (Group ⅟Group 2) gene expression, Comeodesmosin (CDSN) ([1]; vs 0.1% ethanol control, Comeodesmosome formation, not significant): 1.20
- Fold Change (Group ⅟Group 2) gene expression, Involucrin (IVL) [1, 4]: 1.40
- Fold Change (Group ⅟Group 2) gene expression, Late cornified envelope 3A (LCE3A) [1, 4]: 2.58
- Fold Change (Group ⅟Group 2) gene expression, Late cornified envelope 3B (LCE3B) [1, 4]: 1.67
- Fold Change (Group ⅟Group 2) gene expression, Late cornified envelope 3C (LCE3C) [1, 4]: 2.71
- Fold Change (Group ⅟Group 2) gene expression, Small proline-rich protein 2D (SPRR2D) [1, 4]: 1.52
- Fold Change (Group ⅟Group 2) gene expression, Claudin 4 (CLDN4) [1, 5]: 1.76
- Fold Change (Group ⅟Group 2) gene expression, Claudin 7 (CLDN7) [1, 5]: 1.65
- Fold Change (Group ⅟Group 2) gene expression, Claudin 17 (CLDN17) [1, 5]: 2.99
- Fold Change (Group ⅟Group 2) gene expression, Claudin 25 (CLDN25) [1, 5]: 2.05
- Fold Change (Group ⅟Group 2) gene expression, Zona Occludens 1 (ZO1 (TJP1)) ([1]; vs 0.1% ethanol control, Tight junction formation, not significant): 1.3
- Fold Change (Group 1/Group 2) gene expression, Involucrin (IVL) ([2]; 30 uM topical in PBS with 1% ethanol, vs control, Cornified envelop formation): 2.7
- Fold Change (Group 1/Group 2) gene expression, Claudin 1 (CLDN 1) [2, 6]: 2.1
- Fold Change (Group 1/Group 2) gene expression, Zona Occludens 2 (ZO2 (TJP2)) [2, 6]: 3.5
- gene expression of epidermal barrier biomarkers compared to control (in words) ([2]; 30 uM topical, human skin explants): increase in gene expression
